Test results reported in PubChem BioAssay AID2060894 (Molecular Pharmacology Branch, DTP, NCI, 2025).

Tested on: K12877-001-R-J1-PDC complex spheroid viability
Test: Anticancer human tumor K12877-001-R-J1-PDC patient-derived lung adenocarcinoma cell line growth inhibition [RAS]
Conditions: for viability, T/C: stronger effect = lower value
Procedure, shortened: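 Multi-cell-type spheroids: tumor cells plus HUVEC endothelial cells and mesenchymal stem cells. RAS-pathway inhibitors were combined with targeted agents, each dosed in half-log steps down from clinical Cmax, or from 10 microM when Cmax was unknown.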
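Note: spheroids exposed to agents for one week before readout.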
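Throughout, for viability, T/C: tumour cells co-cultured with HUVEC and mesenchymal stem cells in spheroids.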

CC(=O)OC12COC1CC(O)C1(C)C(=O)C(O)C3=C(C)C(OC(=O)C(O)C(NC(=O)OC(C)(C)C)c4ccccc4)CC(O)(C(OC(=O)c4ccccc4)C21)C3(C)C (centres undefined) + CCn1c(-c2cccnc2C(C)OC)c2c3cc(ccc31)N1CCOC(CC(NC(=O)C(C(C)C)N(C)C(=O)C3(F)CCN(C(=O)C#CC(C)(C)N(C)C)CC3)C(=O)N3CCCC(N3)C(=O)OCC(C)(C)C2)C1 showed an IC50 (curve of first compound, second compound 0.000949 µM) of under 31.6 nM, an IC50 (curve of first compound, second compound 0.003 µM) of under 31.6 nM and an IC50 (curve of first compound, second compound 0.00949 µM) of under 31.6 nM. The IC50 (curve of first compound, second compound 0.03 µM) was under 31.6 nM, the IC50 (curve of first compound, second compound 0.0949 µM) was under 31.6 nM and the IC50 (curve of first compound, second compound 0.3 µM) was under 31.6 nM. The viability, T/C (second compound 0.000949 µM, first compound 0.0316 µM) was 4.23%, the viability, T/C (second compound 0.000949 µM, first compound 0.1 µM) was 2.96% and the viability, T/C (second compound 0.000949 µM, first compound 0.316 µM) was 3.64%. It also gave a viability, T/C (second compound 0.000949 µM, first compound 1 µM) of 3.51%, a viability, T/C (second compound 0.000949 µM, first compound 3.16 µM) of 3.12% and a viability, T/C (second compound 0.000949 µM, first compound 10 µM) of 6.19%. It also gave a viability, T/C (second compound 0.003 µM, first compound 0.0316 µM) of 4.57%, a viability, T/C (second compound 0.003 µM, first compound 0.1 µM) of 3.08% and a viability, T/C (second compound 0.003 µM, first compound 0.316 µM) of 3.09%. The viability, T/C (second compound 0.003 µM, first compound 1 µM) was 2.71%, the viability, T/C (second compound 0.003 µM, first compound 3.16 µM) was 3.37% and the viability, T/C (second compound 0.003 µM, first compound 10 µM) was 6.21%. For the same compound, the viability, T/C (second compound 0.00949 µM, first compound 0.0316 µM) was 3.31%, the viability, T/C (second compound 0.00949 µM, first compound 0.1 µM) was 2.69% and the viability, T/C (second compound 0.00949 µM, first compound 0.316 µM) was 2.28%. For the same compound, the viability, T/C (second compound 0.00949 µM, first compound 1 µM) was 2.12%, the viability, T/C (second compound 0.00949 µM, first compound 3.16 µM) was 2.87% and the viability, T/C (second compound 0.00949 µM, first compound 10 µM) was 5.23%. It also gave a viability, T/C (second compound 0.03 µM, first compound 0.0316 µM) of 3.32%, a viability, T/C (second compound 0.03 µM, first compound 0.1 µM) of 2.79% and a viability, T/C (second compound 0.03 µM, first compound 0.316 µM) of 2.34%. For the same compound, the viability, T/C (second compound 0.03 µM, first compound 1 µM) was 2.42%, the viability, T/C (second compound 0.03 µM, first compound 3.16 µM) was 2.51% and the viability, T/C (second compound 0.03 µM, first compound 10 µM) was 5.78%. For the same compound, the viability, T/C (second compound 0.0949 µM, first compound 0.0316 µM) was 2.88%, the viability, T/C (second compound 0.0949 µM, first compound 0.1 µM) was 2.42% and the viability, T/C (second compound 0.0949 µM, first compound 0.316 µM) was 2.13%. It also gave a viability, T/C (second compound 0.0949 µM, first compound 1 µM) of 2.21%, a viability, T/C (second compound 0.0949 µM, first compound 3.16 µM) of 2.11% and a viability, T/C (second compound 0.0949 µM, first compound 10 µM) of 4.05%. It also gave a viability, T/C (second compound 0.3 µM, first compound 0.0316 µM) of 3.02%, a viability, T/C (second compound 0.3 µM, first compound 0.1 µM) of 2.23% and a viability, T/C (second compound 0.3 µM, first compound 0.316 µM) of 2.13%. The viability, T/C (second compound 0.3 µM, first compound 1 µM) was 1.55%, the viability, T/C (second compound 0.3 µM, first compound 3.16 µM) was 1.93% and the viability, T/C (second compound 0.3 µM, first compound 10 µM) was 3.39%.
In the case of Nc1ccn(C2OC(CO)C(O)C2(F)F)c(=O)n1 (centres undefined), the viability, T/C (compound 0.00316 µM) is reported as 105% [middle of 4 runs], the viability, T/C (compound 0.01 µM) is reported as 90.8% [middle of 4 runs] and the viability, T/C (compound 0.0316 µM) is reported as 7.36% [middle of 4 runs]. For the same compound, the viability, T/C (compound 0.1 µM) was 5.6% [middle of 4 runs], the viability, T/C (compound 0.316 µM) was 5.52% [middle of 4 runs] and the viability, T/C (compound 1 µM) was 5.95% [middle of 4 runs]. The IC50 (curve of compound) was 17.6 nM [middle of 4 runs].
